Tests used:
[1] = biological target: human thymidylate synthase (hTS) (Homo sapiens, UniProt P04818); assay: Thymidylate synthase; format: biochemical; conditions: versus pemetrexed
[2] = tested on: MDA-MB-435 breast cells; assay: Cell signaling analysis; format: cell-based, human; conditions: MDA-MB-435 cells, 20 μM, 1 or 4 h
[3] = biological target: T1, Toxoplasma gondii thymidylate synthase (Toxoplasma gondii, UniProt Q07422); assay: biochemical
T1 sequence (Q07422 1-610): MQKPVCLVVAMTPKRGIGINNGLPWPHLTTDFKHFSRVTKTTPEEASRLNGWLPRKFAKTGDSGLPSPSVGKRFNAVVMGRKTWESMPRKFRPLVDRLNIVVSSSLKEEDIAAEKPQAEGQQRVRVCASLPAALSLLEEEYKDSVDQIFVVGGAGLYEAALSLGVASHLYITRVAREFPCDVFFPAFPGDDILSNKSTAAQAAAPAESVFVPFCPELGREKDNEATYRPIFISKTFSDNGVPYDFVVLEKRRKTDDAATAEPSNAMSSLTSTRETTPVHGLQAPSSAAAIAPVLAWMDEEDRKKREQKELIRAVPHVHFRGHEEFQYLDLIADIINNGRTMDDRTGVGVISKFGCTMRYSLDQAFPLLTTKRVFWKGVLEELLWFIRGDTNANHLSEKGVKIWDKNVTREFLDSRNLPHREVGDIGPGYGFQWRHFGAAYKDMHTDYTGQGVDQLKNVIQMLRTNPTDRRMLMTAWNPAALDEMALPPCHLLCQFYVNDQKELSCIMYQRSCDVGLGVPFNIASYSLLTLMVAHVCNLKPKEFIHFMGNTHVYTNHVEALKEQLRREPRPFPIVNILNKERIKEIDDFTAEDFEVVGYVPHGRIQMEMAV

[4] = biological target: T2, Flt-3 (Homo sapiens, UniProt P36888); assay: Flt-3 kinase whole cell assay, cytoblot in MV 3:11 cells; format: cell-based; conditions: versus 16
T2 sequence (P36888 27-993): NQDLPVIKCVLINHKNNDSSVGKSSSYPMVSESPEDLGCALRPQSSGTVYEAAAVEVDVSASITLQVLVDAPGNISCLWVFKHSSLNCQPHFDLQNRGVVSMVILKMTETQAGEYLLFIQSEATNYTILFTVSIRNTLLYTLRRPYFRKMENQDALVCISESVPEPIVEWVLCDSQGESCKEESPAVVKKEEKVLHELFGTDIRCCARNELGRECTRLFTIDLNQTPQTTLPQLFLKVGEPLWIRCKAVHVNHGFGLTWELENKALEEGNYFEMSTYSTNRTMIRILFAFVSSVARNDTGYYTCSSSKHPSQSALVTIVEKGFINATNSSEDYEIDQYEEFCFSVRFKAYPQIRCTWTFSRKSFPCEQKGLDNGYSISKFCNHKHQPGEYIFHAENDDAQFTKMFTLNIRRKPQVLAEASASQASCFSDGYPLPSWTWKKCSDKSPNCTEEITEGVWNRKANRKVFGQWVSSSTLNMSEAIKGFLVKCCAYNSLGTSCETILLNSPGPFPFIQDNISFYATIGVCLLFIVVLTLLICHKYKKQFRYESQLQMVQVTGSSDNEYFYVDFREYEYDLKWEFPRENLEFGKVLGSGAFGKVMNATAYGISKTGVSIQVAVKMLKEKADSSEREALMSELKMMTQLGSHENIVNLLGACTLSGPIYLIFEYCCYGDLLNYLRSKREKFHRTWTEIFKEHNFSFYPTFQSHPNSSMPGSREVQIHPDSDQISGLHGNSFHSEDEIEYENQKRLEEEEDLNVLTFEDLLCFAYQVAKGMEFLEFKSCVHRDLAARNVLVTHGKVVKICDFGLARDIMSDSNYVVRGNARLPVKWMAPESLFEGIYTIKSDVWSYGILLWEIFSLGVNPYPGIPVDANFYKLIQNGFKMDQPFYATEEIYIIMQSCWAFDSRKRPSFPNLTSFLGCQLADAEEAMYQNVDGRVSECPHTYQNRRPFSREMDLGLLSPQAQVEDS

[5] = tested on: MDA MB 435 metastatic dermal breast cancer cells; assay: Cell cycle analysis in MDA-MB-435 cells; format: cell-based, human; conditions: 20 μM, 24 h exposure
[6] = biological target: PDGFR-β (Homo sapiens, UniProt P09619); assay: PDGFR-β kinase inhibition, phosphotyrosine cytoblot in SF539 cells; format: cell-based; conditions: versus DMBI
[7] = biological target: E. coli thymidylate synthase (Escherichia coli, UniProt P0A884); assay: Thymidylate synthase; format: biochemical
[8] = tested on: MDA-MB-435, A431, Capan-1, HUVEC, HMEC-1, Huperi-3, human aortic SMCs; assay: Cell viability; conditions: 24 h drug then 24 h serum-containing media; Fig. 10
[9] = biological target: T3, Toxoplasma gondii dihydrofolate reductase (Toxoplasma gondii, UniProt Q07422); assay: biochemical
T3 sequence (Q07422 1-610): T1 sequence (Q07422 1-610)

[10] = tested on: COLO-205 metastatic colon cancer cells; assay: COLO-205 human metastatic colon mouse xenograft; format: in vivo, athymic mice; conditions: 1 at both 25 and 35 mg/kg; DMBI 15 mg/kg three times weekly
[11] = Whole animal toxicity assay; conditions: doses up from 75 mg/kg; no MTD was determined
[12] = Dose-finding embryo lethality in CAM model; format: in vivo; conditions: chicken embryos, 3 days after injection
[13] = tested on: NCI 60 tumor cell lines; assay: NCI preclinical 60 tumor cell line panel growth inhibition; format: cell-based; conditions: Homo sapiens, read-out: GI50 against the growth of the NCI 60 tumor cell lines

Sequence of PDGFR-β (P09619 33-1106): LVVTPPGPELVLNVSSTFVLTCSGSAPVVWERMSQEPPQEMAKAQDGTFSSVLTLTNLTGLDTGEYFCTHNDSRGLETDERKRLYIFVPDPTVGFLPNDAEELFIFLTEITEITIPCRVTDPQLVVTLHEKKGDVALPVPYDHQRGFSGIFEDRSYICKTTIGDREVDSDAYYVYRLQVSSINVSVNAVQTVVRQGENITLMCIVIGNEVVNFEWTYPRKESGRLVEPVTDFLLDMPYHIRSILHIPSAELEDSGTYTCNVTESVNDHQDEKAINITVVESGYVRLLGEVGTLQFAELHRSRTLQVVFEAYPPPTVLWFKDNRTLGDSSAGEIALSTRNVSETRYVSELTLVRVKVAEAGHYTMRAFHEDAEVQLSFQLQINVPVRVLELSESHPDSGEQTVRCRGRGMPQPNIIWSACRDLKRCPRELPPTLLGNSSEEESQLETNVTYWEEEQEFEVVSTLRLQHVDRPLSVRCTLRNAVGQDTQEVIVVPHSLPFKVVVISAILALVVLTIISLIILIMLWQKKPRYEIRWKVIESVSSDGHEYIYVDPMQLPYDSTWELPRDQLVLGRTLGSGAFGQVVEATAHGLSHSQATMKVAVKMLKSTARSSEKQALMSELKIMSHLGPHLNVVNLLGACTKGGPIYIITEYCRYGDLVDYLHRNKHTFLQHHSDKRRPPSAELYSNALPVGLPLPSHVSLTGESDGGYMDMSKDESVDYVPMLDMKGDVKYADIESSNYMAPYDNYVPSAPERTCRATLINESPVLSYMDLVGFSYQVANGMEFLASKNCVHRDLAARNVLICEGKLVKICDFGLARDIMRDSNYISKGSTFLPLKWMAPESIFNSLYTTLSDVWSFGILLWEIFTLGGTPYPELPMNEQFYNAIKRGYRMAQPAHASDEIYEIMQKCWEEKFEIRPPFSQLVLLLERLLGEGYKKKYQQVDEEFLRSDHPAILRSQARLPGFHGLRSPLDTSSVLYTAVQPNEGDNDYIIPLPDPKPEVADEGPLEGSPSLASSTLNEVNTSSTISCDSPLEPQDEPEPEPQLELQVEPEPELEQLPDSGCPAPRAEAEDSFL
Sequence of E. coli thymidylate synthase (P0A884 whole entry): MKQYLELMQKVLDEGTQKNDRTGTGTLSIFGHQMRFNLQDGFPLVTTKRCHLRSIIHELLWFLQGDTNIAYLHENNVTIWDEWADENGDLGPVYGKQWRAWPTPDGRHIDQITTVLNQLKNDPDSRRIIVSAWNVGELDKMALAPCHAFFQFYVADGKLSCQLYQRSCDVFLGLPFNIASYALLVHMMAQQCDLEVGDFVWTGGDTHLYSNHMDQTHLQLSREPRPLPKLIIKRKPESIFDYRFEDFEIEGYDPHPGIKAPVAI
Sequence of human thymidylate synthase (hTS) (P04818 whole entry): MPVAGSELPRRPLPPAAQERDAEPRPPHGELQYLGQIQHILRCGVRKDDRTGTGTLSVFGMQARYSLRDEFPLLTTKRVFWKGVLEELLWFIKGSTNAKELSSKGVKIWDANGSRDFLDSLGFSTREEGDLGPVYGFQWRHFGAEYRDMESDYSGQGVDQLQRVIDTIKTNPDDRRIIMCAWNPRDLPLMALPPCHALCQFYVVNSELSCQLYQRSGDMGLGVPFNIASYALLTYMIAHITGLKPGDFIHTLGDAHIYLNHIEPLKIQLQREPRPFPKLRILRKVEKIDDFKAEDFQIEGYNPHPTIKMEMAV

Row | SMILES | hTS: fold more active than PMX as its monoglutamate [1] [fold] | levels of activated phospho-Akt [2] | levels of activated phospho-p42/44 MAPkinase (ERK 1/2) [2] | levels of cleaved caspase 3 [2] | IC50 [3] [µM] | Flt-3: fold less active compared with standard 16 [4] | cell cycle effect [5] | PDGFR-β: fold less potent than the standard DMBI [6] | IC50 [7] [µM] | cell viability (cell kill) sensitivity by cell type [8] | IC50 [9] [µM] | numbers of COLO-205 metastases to the liver [10] | tolerability in mice [11] | highest dose resulting in no lethality or overt toxicity in embryos [12] [mg/kg] | GI50 [13] [µM]
1 | Cc1ccc(Sc2cccc3[nH]c4nc(N)nc(N)c4c23)cc1 [Compound 2, 5-[(4-methylphenyl)thio]-9H-pyrimido[4,5-b]indole-2,4-diamine] | 76 | neither agent resulted in increased levels of activated phospho-Akt | reduced levels of activated ERK 1/2 | neither 20 μM 1 or 20 μM 2 resulted in increased levels of cleaved caspase 3 | > 26 | about 13 fold | increase in S phase | about 11 fold | > 26 | tumor cells being the most sensitive, endothelial cells falling someplace in the middle, and SMC variants being the least sensitive | > 31 | – | – | – | –
2 | Nc1nc(N)c2c(n1)[nH]c1cccc(Sc3ccccc3)c12 [Compound 1, 5-(phenylthio)-9H-pyrimido[4,5-b]indole-2,4-diamine] | – | neither agent resulted in increased levels of activated phospho-Akt | reduced levels of activated ERK 1/2 | neither 20 μM 1 or 20 μM 2 resulted in increased levels of cleaved caspase 3 | – | – | buildup in G2/M | – | – | Human retinal pericytes (Huperi-3),[64] (not human aortic SMCs), were very sensitive | – | significantly reduced numbers of COLO-205 metastases to the liver | well tolerated without any visual ADRs or loss in weight | 25 | 1 to 10
3 | Nc1ccn([C@@H]2O[C@H](CO)[C@@H](O)C2(F)F)c(=O)n1 [gemcitabine, reference compound] | – | – | – | – | – | – | – | – | – | – | – | – | – | 10 | –

Reference: publication PMC2825747 (Journal of medicinal chemistry, 2010)
